Results on 25 compounds are retold here after patent US11174253B2, “Compound and pharmaceutical composition containing the same” (ALPHALA CO., LTD., priority 2017, dated 2021).

In general, viability refers to a per cent measure of how many cells are alive, often set against a control.

The test relates to hepatocellular carcinoma cell line Hep3B. Briefly: Growth inhibition of Hep3B cells, 48 hr treatment, Hoechst 33342 nucleus count (GE InCell 2200). The class given is cell-based. The settings on record: Homo sapiens. As for the experimental part: The potency of selected compounds was defined by the growth inhibition ability to the hepatocellular carcinoma cell line Hep3B. The Hep3B cells were treated with selected compounds for 48 hr under 37° C., 5% CO2, and 95% relative humidity.
The number of treated cells was determined by GE InCell 2200 system, and treated cells were stained with Hoechst 33342 which can reveal the remained nucleus in culture plate. The proportion of survival cells then were calculated with the ratio of treated/non-treated cells. The growth inhibition/cytotoxic effect of selected compounds were evaluated by the following protocol of NCI-60 screening platform. The human tumor cell lines are plating on a 96 well plate in a fixed density 24 hr prior compound treatment. Compounds with multiple concentrations are then added into each well for further 48 hr incubation. Cell viability is assessed by MTS method and the potency of compound is represented by GI50 and LC50 calculated by MTS result.
Herein, the “Ratio in 10 μM (%)” in the following Tables 1-6 refers to the ratio of the number of tumor cells treated with 10 μM of selected compounds to the number of non-treated tumer cells.

[1] abbreviates: Table 6, ratio of number of tumor cells treated with 10 μM compound to non-treated cells.
The mark [2] stands for this setting: Table 5, ratio of number of tumor cells treated with 10 μM compound to non-treated cells.
The mark [3] stands for this setting: Table 3, ratio of number of tumor cells treated with 10 μM compound to non-treated cells.

The structures appear in SMILES notation.

As for `CCCOc1ccc(-c2nc(NC(=O)c3ccc([N+](=O)[O-])s3)sc2C(=O)Nc2ccc(F)cc2F)cc1` [Compound 6-31, N-(2,4-difluorophenyl)-2-(5-nitrothiophene-2-carboxamido)-4-(4-propoxyphenyl)thiazole-5-carboxamide], the viability at 10 µM under setting [1] came to 61%.
With `O=C(Nc1nc(-c2ccc(Br)cc2)c(Oc2ccccc2)s1)c1ccc([N+](=O)[O-])s1` [Compound 5-1, N-(4-(4-bromophenyl)-5-phenoxythiazol-2-yl)-5-nitrothiophene-2-carboxamide], the viability at 10 µM under setting [2] was determined as 66%.
Regarding `CCOc1ccc(-c2nc(NC(=O)c3ccc([N+](=O)[O-])s3)sc2-c2ccc(C(F)(F)F)cc2)cc1` [Compound 6-19, N-(4-(4-ethoxyphenyl)-5-(4-(trifluoromethyl)phenyl)thiazol-2-yl)-5-nitrothiophene-2-carboxamide], under setting [1], the viability at 10 µM was found to be 26%.
With `CCOc1ccc(-c2nc(NC(=O)c3ccc([N+](=O)[O-])s3)sc2-c2ccc(F)cc2)cc1` [Compound 6-15, N-(4-(4-ethoxyphenyl)-5-(4-fluorophenyl)thiazol-2-yl)-5-nitrothiophene-2-carboxamide], under setting [1], the viability at 10 µM turned out to be 64%.
Turning to `CCOc1ccc(-c2nc(NC(=O)c3ccc([N+](=O)[O-])s3)sc2N(C)c2ccccc2)cc1` [Compound 6-28, N-(4-(4-ethoxyphenyl)-5-(methyl (phenyl)amino)thiazol-2-yl)-5-nitrothiophene-2-carboxamide], under setting [1], the viability at 10 µM amounted to 31%.
For the compound `CCOc1ccc(-c2cnc(NC(=O)Cc3ccc4nc(N)sc4c3)[nH]2)c(OCC)c1` [Compound 4-4, 2-(2-aminobenzo[d]thiazol-6-yl)-N-(5-(2,4-diethoxyphenyl)-1H-imidazol-2-yl)acetamide], the viability at 10 µM (Table 4, ratio of number of tumor cells treated with 10 μM compound to non-treated cells) came out at 40%.
As to `O=C(Nc1nc(-c2ccc(F)cc2)c(Oc2ccccc2C(F)(F)F)s1)c1ccc([N+](=O)[O-])s1` [Compound 5-31, N-(4-(4-fluorophenyl)-5-(2-(trifluoromethyl)phenoxy)thiazol-2-yl)-5-nitrothiophene-2-carboxamide], under setting [2], the viability at 10 µM came out at 48%.
For the compound `CC(C)(C)c1ccc(-c2nc(NC(=O)c3ccc([N+](=O)[O-])s3)sc2-c2ccc(F)cc2F)cc1` [Compound 6-39, N-(4-(4-(tert-butyl)phenyl)-5-(2,4-difluorophenyl)thiazol-2-yl)-5-nitrothiophene-2-carboxamide], under setting [1], the viability at 10 µM was determined as 31%.
For the compound `CCOc1ccc(-c2nc(NC(=O)c3ccc([N+](=O)[O-])s3)sc2Oc2ccccc2)c(OCC)c1` [Compound 5-12, N-(4-(2,4-diethoxyphenyl)-5-phenoxythiazol-2-yl)-5-nitrothiophene-2-carboxamide], the viability at 10 µM under setting [2] turned out to be 46%.
Regarding `COc1cccc(-c2nc(NC(=O)Cc3ccc4nc(N)sc4c3)sc2Br)c1` [Compound 3-8, 2-(2-aminobenzo[d]thiazol-6-yl)-N-(5-bromo-4-(3-methoxyphenyl)thiazol-2-yl)acetamide], the viability at 10 µM under setting [3] came out at 84%.
Take `CCCCOc1ccc(-c2nc(NC(=O)c3ccc([N+](=O)[O-])s3)sc2Oc2ccc(C(C)(C)CC)cc2)cc1` [Compound 5-98, N-(4-(4-butoxyphenyl)-5-(4-(tert-pentyl)phenoxy)thiazol-2-yl)-5-nitrothiophene-2-carboxamide]: under setting [2], the viability at 10 µM was determined as 50%.
Take `CCOc1ccc(-c2nc(NC(=O)c3ccc([N+](=O)[O-])s3)sc2Cc2cccc(F)c2)cc1` [Compound 6-36, N-(4-(4-ethoxyphenyl)-5-(3-fluorobenzyl)thiazol-2-yl)-5-nitrothiophene-2-carboxamide]: under setting [1], the viability at 10 µM was determined as 41%.
For `CCCOc1ccc(-c2nc(NC(=O)c3ccc([N+](=O)[O-])s3)sc2Oc2cc(F)cc(F)c2)cc1` [Compound 5-50, N-(5-(3,5-difluorophenoxy)-4-(4-propoxyphenyl)thiazol-2-yl)-5-nitrothiophene-2-carboxamide], the viability at 10 µM under setting [2] turned out to be 42%.
In the case of `CCCOc1ccc(-c2nc(NC(=O)c3ccc([N+](=O)[O-])s3)sc2Oc2ccc(C#N)cc2OC)cc1` [Compound 5-40, N-(5-(4-cyano-2-methoxyphenoxy)-4-(4-propoxyphenyl)thiazol-2-yl)-5-nitrothiophene-2-carboxamide], the viability at 10 µM under setting [2] is 46%.
Still for that read-out and setting: to `COc1ccc(-c2nc(NC(=O)c3ccc([N+](=O)[O-])s3)sc2Oc2ccccc2)cc1` [Compound 5-34, N-(4-(4-methoxyphenyl)-5-phenoxythiazol-2-yl)-5-nitrothiophene-2-carboxamide] belongs 54%; to `CCCCOc1ccc(-c2nc(NC(=O)c3ccc([N+](=O)[O-])s3)sc2Oc2cc(C)cc(C)c2)cc1` [Compound 5-106, N-(4-(4-butoxyphenyl)-5-(3,5-dimethylphenoxy)thiazol-2-yl)-5-nitrothiophene-2-carboxamide], 29%.
For `COCCOc1ccc(-c2nc(NC(=O)c3ccc([N+](=O)[O-])s3)sc2Oc2ccccc2)cc1` [Compound 5-16, N-(4-(4-(2-methoxyethoxy)phenyl)-5-phenoxythiazol-2-yl)-5-nitrothiophene-2-carboxamide], under setting [2], the viability at 10 µM worked out at 59%.
Consider `CCCCOc1ccc(-c2nc(NC(=O)c3ccc([N+](=O)[O-])s3)sc2Oc2ccc(C(C)(C)C)cc2)cc1` [Compound 5-90, N-(4-(4-butoxyphenyl)-5-(4-(tert-butyl)phenoxy)thiazol-2-yl)-5-nitrothiophene-2-carboxamide], for which, under setting [2], the viability at 10 µM came out at 48%.
In the case of `CC(C)(C)c1ccc(Oc2sc(NC(=O)c3ccc([N+](=O)[O-])s3)nc2-c2ccc(F)cc2)cc1` [Compound 5-64, N-(5-(4-(tert-butyl)phenoxy)-4-(4-fluorophenyl)thiazol-2-yl)-5-nitrothiophene-2-carboxamide], the viability at 10 µM under setting [2] came to 54%.
For the compound `CCOc1ccc(-c2nc(NC(=O)c3ccc([N+](=O)[O-])s3)sc2Oc2ccccc2F)cc1` [Compound 5-57, N-(4-(4-ethoxyphenyl)-5-(2-fluorophenoxy)thiazol-2-yl)-5-nitrothiophene-2-carboxamide], the viability at 10 µM under setting [2] came to 43%.
Take `CCCCOc1ccc(-c2nc(NC(=O)c3ccc([N+](=O)[O-])s3)sc2Oc2ccc(CCC)cc2)cc1` [Compound 5-93, N-(4-(4-butoxyphenyl)-5-(4-propylphenoxy)thiazol-2-yl)-5-nitrothiophene-2-carboxamide]: the viability at 10 µM under setting [2] is 45%.
Turning to `CCOc1ccc(-c2cnc(NC(=O)Cc3ccc4nc(N)sc4c3)s2)cc1` [Compound 3-11, 2-(2-aminobenzo[d]thiazol-6-yl)-N-(5-(4-ethoxyphenyl)thiazol-2-yl)acetamide], the viability at 10 µM under setting [3] worked out at 60%.
On to `CC(C)Oc1ccc(-c2nnc(NC(=O)Cc3ccc4nc(N)sc4c3)s2)cc1` [Compound 1-14, 2-(2-aminobenzo[d]thiazol-6-yl)-N-(5-(4-isopropoxyphenyl)-1,3,4-thiadiazol-2-yl)acetamide], for which, under “Table 1, ratio of number of tumor cells treated with 10 μM compound to non-treated cells”, the viability at 10 µM was found to be 71%.
Regarding `CCc1ccc(-c2nc(NC(=O)c3ccc([N+](=O)[O-])s3)sc2Oc2ccc(C(C)(C)CC)cc2)cc1` [Compound 5-103, N-(4-(4-ethylphenyl)-5-(4-(tert-pentyl)phenoxy)thiazol-2-yl)-5-nitrothiophene-2-carboxamide], the viability at 10 µM under setting [2] is 33%.
For `CCCCOc1ccc(-c2nc(NC(=O)c3ccc([N+](=O)[O-])s3)sc2Oc2ccccc2F)cc1` [Compound 5-72, N-(4-(4-butoxyphenyl)-5-(2-fluorophenoxy)thiazol-2-yl)-5-nitrothiophene-2-carboxamide], under setting [2], the viability at 10 µM stood at 43%.
